# Assays:
# [1] = tested on: GLUT4 reporter (GLUT4myc7-GFP) in 3T3-L1 cells; test: Flow cytometry assay of GLUT4 reporter translocation to the plasma membrane in 3T3-L1 cells; assay type: cell-based, murine; settings: for fold increase in the proportion of total GLUT4 present at the cell surface: insulin 80 nM
# Description: A GLUT4 translocation assay was carried out as follows: 3T3 L1 preadipocytes were infected with a retrovirus encoding a GLUT4 construct fused to green fluorescent protein (GFP) at its carboxy terminus, and containing seven myc epitope tags in the first exofacial loop. A population of cells expressing a narrow window of green fluorescence was isolated by fluorescence activated cell sorting (FACS). These cells were propagated and differentiated on 10 cm plates, and were reseeded on 6-well dishes the day prior to performing the GLUT4 translocation assay. Cells were serum starved for 3 hours, then stimulated or not with 160 nM insulin for 10 minutes. They were then placed on ice and washed with cold phosphate buffered saline with calcium and magnesium (PBS++). All subsequent steps were done at 4° C. Cells were incubated with anti-myc antibody (9E10), washed briefly with PBS++, and incubated with phycoerythrin-conjugated F(ab)2 antimouse IgG. Cells were washed with PBS++, resuspended using EDTA, and analysed by two color flow cytometry.
# One protocol for carrying out the method of assessing translocation of modified GLUT4 is as follows: 3T3L1 cells are maintained at a subconfluent density, infected with retrovirus expression vectors which include DNA encoding modified GLUT4 and induced to differentiate into adipocytes. After being cultured (e.g., for 8-12 days) under appropriate conditions, the cells are reseeded onto plates (e.g., 6-well plates) and serum starved (e.g., for 3 or more hours). Some cells are stimulated by insulin (e.g., 160 nM, 10 minutes), placed on ice and washed at 4° C. with PBS++ (phosphate buffered saline containing calcium and magnesium). Anti-myc antibody (9E10, available from the American Type Culture Collection) is added to the cells ([…], 1 ½ hours, 4° C.). The cells are again washed with PBS++ at 4° C. and an […] labeled with a red fluorophore (R-phycoerythrin (R-PE) conjugated antimouse IgG, 50 μg/ml, 45 minutes, 4° C.) is added. Another washing with PBS++(4° C.) is carried out, the cells are suspended with EDTA and FACS (fluorescences activated cell scanning/sorting) is carried out.
# Confluent cells were reseeded on the indicated day of differentiation to six well plates (Coming, Costar #3506) one day before use in experiments, and were starved in DMEM without fetal bovine serum for at least 3 hours before insulin stimulation. Insulin was used at 80 nM or 160 nM; no difference was noted between these concentrations in either 3T3-L1 or CHO cells. After treatment in the presence or absence of insulin for the times indicated in each figure, cells were quickly transferred to 4° C. and washed with cold phosphate buffered saline containing 0.9 mM Ca^++ and 0.5 mM Mg^++ (PBS++). All subsequent steps were carried out at 4° C., and staining of externalized myc epitope was done on adherent cells. Cells were incubated with a 1:200 dilution of anti-myc (9E10) ascites in PBS++, 2% bovine serum albumin, 4% donkey serum for 1.5 hours. Cells were then washed twice in PBS++, for 5 min. each time. They were then incubated 45 min. in 12.5 µg/ml R-phycoerythrin conjugated donkey F(ab′)2 anti-mouse IgG secondary antibody, diluted in PBS++, 2% BSA, 4% donkey serum. Cells were washed three times with PBS++, for 10 min. each time, and were resuspended by gentle scraping in PBS++, 2% BSA for flow cytometry. […]
# [2] = tested on: GLUT4myc-GFP in 3T3-L1 adipocytes; test: Time-lapse video fluorescence microscopy of GLUT4myc-GFP in 3T3-L1 adipocytes; assay type: cell-based, murine; settings: 3T3-L1 adipocyte; 2.5, 5 and 10 minutes after insulin
# Description: Time lapse video fluorescence microscopy was performed using a Nikon Diaphot 300 inverted microscope as described (Smith, G. A., et al., J Cell Biol. 135:647-660 (1996)). 3T3-L1 adipocytes expressing GLUT4myc-GFP were reseeded to 25 mm round coverslips and were incubated in serum-free DMEM for at least three hours before microscopy. Cells were maintained at 37° C. during microscopy using an aluminum chamber mounted on the stage and connected to a circulating waterbath. Images were acquired every 15 sec using a Hammamatsu CCD camera and Metamorph software (Universal Imaging Corp., West Chester, Pa.).
# The GLUT4 reporter in a murine retroviral vector was used to infect 3T3-L1 fibroblasts. The infected cells underwent normal adipose differentiation (see below), and we took several approaches to confirm that the GLUT4 reporter traffics appropriately. […] In the absence of insulin, GFP fluorescence is present in the perinuclear pattern that is characteristic of GLUT4, as well as in punctate structures near the plasma membrane and throughout the cytoplasm. Lipid droplets are present in the cytoplasm, and are seen as discrete areas of reduced fluorescence intensity.
# [3] = tested on: GLUT4 reporter in CHO cells; test: Flow cytometry assay of GLUT4 reporter translocation to the plasma membrane in CHO cells; assay type: cell-based, Chinese hamster
# Description: CHO-K1 cells stably expressing the murine ecotropic retroviral receptor were kindly provided by David Hirsch, Roger Lawrence, and Monty Kreiger (Massachusetts Institute of Technology, Cambridge Mass.), and were maintained in Han's F-12 medium with 10% fetal bovine serum, 2 mM glutamine, 100 U/ml penicillin, and 0.1 mg/ml streptomycin (Baker, B. W., et al., (1992)). To use identical experimental conditions in CHO and 3T3-L1 cells, CHO cells were placed in the same medium used for 3T3-L1 adipocytes two days before assays of GLUT4 trafficking. Phoenix ecotropic retroviral packaging cells were a gift from Garry Nolan (Stanford University Medical Center) and VE23 ecotropic retroviral packaging cells were a gift from Merav Socolovsky (Whitehead Institute, Cambridge Mass.) (Kinsella, and Nolan, Hum Gene Ther. 7:1405-1413 (1996); Socolovsky, M., et al. J Biol Chem. 272:14009-14012 (1997)). Both retroviral packaging cell lines were cultured in DMEM, 10% fetal bovine serum, glutamine, penicillin and streptomycin as above.
# Confluent cells were reseeded on the indicated day of differentiation to six well plates (Coming, Costar #3506) one day before use in experiments, and were starved in DMEM without fetal bovine serum for at least 3 hours before insulin stimulation. Insulin was used at 80 nM or 160 nM; no difference was noted between these concentrations in either 3T3-L1 or CHO cells. After treatment in the presence or absence of insulin for the times indicated in each figure, cells were quickly transferred to 4° C. and washed with cold phosphate buffered saline containing 0.9 mM Ca^++ and 0.5 mM Mg^++ (PBS++). All subsequent steps were carried out at 4° C., and staining of externalized myc epitope was done on adherent cells. Cells were incubated with a 1:200 dilution of anti-myc (9E10) ascites in PBS++, 2% bovine serum albumin, 4% donkey serum for 1.5 hours. Cells were then washed twice in PBS++, for 5 min. each time. They were then incubated 45 min. in 12.5 µg/ml R-phycoerythrin conjugated donkey F(ab′)2 anti-mouse IgG secondary antibody, diluted in PBS++, 2% BSA, 4% donkey serum. Cells were washed three times with PBS++, for 10 min. each time, and were resuspended by gentle scraping in PBS++, 2% BSA for flow cytometry. For experiments involving insulin removal, cells were chilled as above after insulin stimulation, then washed twice with 5 mM sodium acetate, 150 mM NaCl, pH 4.0 (Yang, J., et al., J Biol Chem. 267:1039310399 (1992); Kao, A. W., et al., J Biol Chem. 273:25450-25457 (1998)). Cells were rewarmed in 37° C. DMEM for the times indicated, restimulated or not with insulin, and then returned to 4° C. and chilled with cold PBS++ before staining as above.
# Flow cytometry was done on FACScan or FACSCalibur cytometers (Becton-Dickinson). Appropriate compensation between the FL1 and FL2 channels was set using uninfected (GFP-negative) cells or cells stained with PE only (e.g. using a PE-conjugated anti-transferrin receptor antibody; Pharmingen). […] For each sample, data from ≧10,000 cells were collected. Median fluorescence intensities were used for quantitation, since this measure of central tendency is least sensitive to outliers. For each sample, the PE and GFP fluorescence specifically attributable to the presence of the GLUT4 reporter were determined by subtracting background fluorescences, measured using control unstained cells and cells not expressing the reporter, respectively.
# Whether this recycling mechanism is present in an unrelated cell type was also assessed. This was done by infecting Chinese Hamster Ovary (CHO) cells expressing the murine ecotropic retroviral receptor with a retrovirus carrying the GLUT4 reporter, and using FACS to isolate cells falling within a narrow range of GFP fluorescence intensities. CHO cells are smaller and have less autofluorescence than 3T3-L1 adipocytes or fibroblasts. […]
# GLUT4 in adipocytes = settings: ≦10% in the absence of insulin; cited from earlier work
# [4] = CHO cells in DMEM, 80 nM insulin
substance,measurement,setting,value
insulin,fold increase in the proportion of total GLUT4 present at the cell surface,"[1]; 3T3-L1 adipocytes, 10 min",5.0 fold
same,difference in response between 80 nM and 160 nM insulin,[1]; 3T3-L1 cells,no difference
same,fall of the fraction of GLUT4 on the plasma membrane after the peak,"[1]; all stages of 3T3-L1 differentiation, 80 nM insulin",30% to 40%
same,fold increase in the proportion of total GLUT4 present at the cell surface,"[1]; confluent 3T3-L1 fibroblasts, 5 min",4.4 fold
same,average maximal increase in the proportion of GLUT4 at the cell surface,"[1]; mature (Day 8 and 10) 3T3-L1 adipocytes, 80 nM insulin",5.4 fold
same,distribution of GFP fluorescence after insulin addition,[2],redistribution of fluorescence to the plasma membrane
same,difference in response between 80 nM and 160 nM insulin,[3]; CHO cells,no difference
same,kinetics of GLUT4 redistribution after insulin addition,"[3]; CHO cells cultured in DME medium (25 mM glucose), 80 nM insulin",biphasic kinetics
same,kinetics of GLUT4 externalization after insulin addition,"[3]; CHO cells cultured in F12 medium (10 mM glucose), 80 nM insulin",essentially monophasic response
same,time of peak GLUT4 externalization after insulin addition,[3]; [4],four to five
same,time to steady state of cell-surface GLUT4 after insulin addition,[3]; [4],twenty
same,peak fold increase in the proportion of GLUT4 at the cell surface versus unstimulated cells,"[3]; CHO cells in DMEM, 80 nM insulin, 5 minutes after addition",5.5 fold
same,part of the peak increase in cell-surface GLUT4 eliminated in the subsequent decrease,"[3]; CHO cells, several experiments",50% to 60%
same,fold increase in the proportion of total GLUT4 present at the cell surface,"[3]; confluent CHO cells, insulin 80 nM, 8 min",3.5 fold
same,proportion of GLUT4 at the cell surface in the presence of insulin,GLUT4 in adipocytes,approximately 50%

# Reference: US6632924B2, “Method of measuring plasma membrane targeting of GLUT4” (Whitehead Institute for Biomedical Research, priority 1999, dated 2003)
